System: IFNγ-Induced NO Production
Assay: Nitric Oxide Suppression Assay (Suppression of IFNγ-Induced NO Production)
Type: cell-based
Conditions: RAW264.7; RAW 264.7 mouse macrophage cells; 2 hour pre-treatment with compound (3 μM to 0.3 nM, 10 point curve); 20 ng/mL interferon gamma, ~18 hour; Griess detection; n=2-3 in duplicates
Method: RAW 264.7, a mouse macrophage cell line, was obtained from American Type Culture Collection (Manassas Va.) and maintained in the log phase of growth in Dulbecco's Modified Eagle's Medium (DMEM), 10% heat inactivated fetal calf serum and 100 units/mL antibiotic-antimycotic (AA). Cells were cultured and maintained in a humidified incubator at 37° C. under 5% CO2 and 95% air. Cells were sub-cultured every 3 days by scraping and were not used beyond passage 20. All cell culture supplies were obtained from Life Technologies (Grand Island, N.Y.).
RAW 264.7 cells were plated 1 day in advance of experiment at a concentration of 80,000 cells/well onto CellBIND® 96 well plates (Corning, N.Y.) in a total volume of 100 μL. The next day, pre-treat cells with compounds (from 3 μM to 0.3 nM serially diluted in a 10 point curve) from a 10× stock by adding 10 μL per well in complete DMEM media containing 10% fetal calf serum. The plates were centrifuged for 3 minutes at 400×g at room temperature followed by 2 hour incubation at 37° C. The cells were then incubated overnight at 37° C. with 10 μL of the insult, interferon gamma (R&D Systems, Minneapolis, Minn.), from a 10× stock for a final concentration of 20 ng/mL. The plates were centrifuged for 3 minutes at 400×g at room temperature followed by ˜18 hour incubation at 37° C. The following day, transfer 50 μL cell culture supernatant from each well into a clear bottom 96 well plate and follow the instructions from Promega's Griess Detection Kit #G2930 (Madison, Wis.) which involves the addition of 50 μL of the provided sulfanilamide solution for a 5-10 minute incubation at room temperature. Next add 50 μL of the provided N-1-napthylethylenediamine dihydrochloride (NED) solution for a 5-10 minute incubation at room temperature and protected from light. If any air bubbles were introduced into the well, the plates need to be centrifuged for 5 minutes at 400×g at room temperature to avoid interference with absorbance readings. The plates were read for absorbance within 30 minutes with a filter between 520 nm and 550 nm.
For the ability of compounds to suppress the increase in nitric oxide release, the percent maximal intensity of nitric oxide detected in each well was normalized to that induced by the peak value for 20 ng/mL of interferon gamma alone and plotted against the compound concentration to calculate IC50 values and to control for plate-to-plate variability. Concentration-response data were analyzed using GraphPad Prism (San Diego, Calif.); the IC50 values were derived from a single curve fit to the mean data of n=2-3, in duplicates.
All compounds were dissolved in dimethyl sulfoxide at 10 mM stock solutions and tested at a concentration that the dimethyl sulfoxide levels never exceeded 1%.

For `C[C@@H]1C(=O)C(C#N)=C[C@]2(c3ccccc3)c3nn(C)c(-c4ccccc4)c3CC[C@@H]12` (racemic) [Example 2, rac-(5aS,6S,9aR)-2,6-dimethyl-7-oxo-3,9a-diphenyl-4,5,5a,6,7,9a-hexahydro-2H-benzo[g]indazole-8-carbonitrile], the IC50 was 16.9 nM.

Work on `C[C@@H]1C(=O)C(C#N)=C[C@]2(c3ccccc3)c3c(c(-c4ccccc4)nn3C)CC[C@@H]12` (racemic) [Example 3, rac-(5aS,6S,9aR)-1,6-dimethyl-7-oxo-3,9a-diphenyl-4,5,5a,6,7,9a-hexahydro-1H-benzo[g]indazole-8-carbonitrile] yielded an IC50 of 7.19 nM.

In the case of `COc1cccc([C@]23C=C(C#N)C(=O)[C@@H](C)[C@@H]2CCc2cn(C)nc23)c1` (racemic) [Example 4, rac-(5aS,6S,9aR)-9a-(3-methoxyphenyl)-2,6-dimethyl-7-oxo-4,5,5a,6,7,9a-hexahydro-2H-benzo[g]indazole-8-carbonitrile], the IC50 is reported as 114 nM.

With `COc1cccc([C@]23C=C(C#N)C(=O)[C@@H](C)[C@@H]2CCc2cnn(C)c23)c1` (racemic) [Example 5, rac-(5aS,6S,9aR)-9a-(3-methoxyphenyl)-1,6-dimethyl-7-oxo-4,5,5a,6,7,9a-hexahydro-1H-benzo[g]indazole-8-carbonitrile] the IC50 was 41.3 nM.

For `C[C@@H]1C(=O)C(C#N)=C[C@]2(c3ccccc3)c3[nH]nc(-c4ccccc4)c3CC[C@@H]12` (racemic) [Example 6, rac-(5aS,6S,9aR)-6-methyl-7-oxo-3,9a-diphenyl-4,5,5a,6,7,9a-hexahydro-1H-benzo[g]indazole-8-carbonitrile], the IC50 was 37.5 nM.

For `C[C@@H]1C(=O)C(C#N)=C[C@]2(c3ccccc3)c3nc(-c4ccccc4)ncc3CC[C@@H]12` (racemic) [Example 7, rac-(6aS,7S,10aR)-7-methyl-8-oxo-2,10a-diphenyl-5,6,6a,7,8,10a-hexahydrobenzo[h]quinazoline-9-carbonitrile], the IC50 was 30.4 nM.

`COc1nc(-c2ccccc2)nc2c1CC[C@H]1[C@H](C)C(=O)C(C#N)=C[C@]21c1ccccc1` (racemic) [Example 8, rac-(6aS,7S,10aR)-4-methoxy-7-methyl-8-oxo-2,10a-diphenyl-5,6,6a,7,8,10a-hexahydrobenzo[h]quinazoline-9-carbonitrile] gave an IC50 of 96.3 nM.

`C[C@@H]1C(=O)C(C#N)=C[C@]2(c3ccccc3)c3nc(Nc4ccccc4)ncc3CC[C@@H]12` (racemic) [Example 9, rac-(6aS,7S,10aR)-2-anilino-7-methyl-8-oxo-10a-phenyl-5,6,6a,7,8,10a-hexahydrobenzo[h]quinazoline-9-carbonitrile] gave an IC50 of 5.99 nM.

In the case of `Cc1ncc2c(n1)[C@@]1(c3ccccc3)C=C(C#N)C(=O)[C@@H](C)[C@@H]1CC2` (racemic) [Example 33, rac-(6aS,7S,10aR)-2,7-dimethyl-8-oxo-10a-phenyl-5,6,6a,7,8,10a-hexahydrobenzo[h]quinazoline-9-carbonitrile], the IC50 is reported as 23 nM.

Work on `C[C@@H]1C(=O)C(C#N)=C[C@]2(Cc3ccccc3)c3nn(C)cc3CC[C@@H]12` (racemic) [Example 162, rac-(5aS,6S,9aR)-9a-benzyl-2,6-dimethyl-7-oxo-4,5,5a,6,7,9a-hexahydro-2H-benzo[g]indazole-8-carbonitrile] yielded an IC50 of 231 nM.

`C[C@@H]1C(=O)C(C#N)=C[C@]2(Cc3ccccc3)c3c(cnn3C)CC[C@@H]12` (racemic) [Example 163, rac-(5aS,6S,9aR)-9a-benzyl-1,6-dimethyl-7-oxo-4,5,5a,6,7,9a-hexahydro-1H-benzo[g]indazole-8-carbonitrile] gave an IC50 of 406 nM.

`C[C@@H]1C(=O)C(C#N)=C[C@]2(Cc3ccccc3)c3nn(C)c(-c4ccccc4)c3CC[C@@H]12` (racemic) [Example 164, rac-(5aS,6S,9aR)-9a-benzyl-2,6-dimethyl-7-oxo-3-phenyl-4,5,5a,6,7,9a-hexahydro-2H-benzo[g]indazole-8-carbonitrile] showed an IC50 of 65 nM.

With `C[C@@H]1C(=O)C(C(N)=O)=C[C@]2(Cc3ccccc3)c3nn(C)c(-c4ccccc4)c3CC[C@@H]12` (racemic) [Example 165, rac-(5aS,6S,9aR)-9a-benzyl-2,6-dimethyl-7-oxo-3-phenyl-4,5,5a,6,7,9a-hexahydro-2H-benzo[g]indazole-8-carboxamide] the IC50 was 706 nM.

`C[C@@H]1C(=O)C(C#N)=C[C@]2(c3ccccc3)c3nn(Cc4ccccc4)cc3CC[C@@H]12` (single isomer, unassigned) [Example 56] showed an IC50 of 93.2 nM.

Work on `C[C@@H]1C(=O)C(C#N)=C[C@]2(c3ccccc3)c3c(cnn3Cc3ccccc3)CC[C@@H]12` (single isomer, unassigned) [Example 57] yielded an IC50 of 22 nM.

For `C[C@@H]1C(=O)C(C#N)=C[C@]2(c3ccccc3)c3ncncc3CC[C@@H]12` [Example 1, (6aS,7S,10aR)-7-methyl-8-oxo-10a-phenyl-5,6,6a,7,8,10a-hexahydrobenzo[h]quinazoline-9-carbonitrile], the IC50 was 5.35 nM.

For `COc1ccccc1-c1nc(OC)c2c(n1)[C@@]1(c3ccccc3)C=C(C#N)C(=O)[C@@H](C)[C@@H]1CC2` [Example 10, (6aS,7S,10aR)-4-methoxy-2-(2-methoxyphenyl)-7-methyl-8-oxo-10a-phenyl-5,6,6a,7,8,10a-hexahydrobenzo[h]quinazoline-9-carbonitrile], the IC50 was 22.5 nM.

`C[C@@H]1C(=O)C(C#N)=C[C@]2(c3ccccc3)c3nc(-c4cccnc4)ncc3CC[C@@H]12` [Example 11, (6aS,7S,10aR)-7-methyl-8-oxo-10a-phenyl-2-(pyridin-3-yl)-5,6,6a,7,8,10a-hexahydrobenzo[h]quinazoline-9-carbonitrile] was tested, and the IC50 was 6.03 nM.

Work on `CCNc1ncc2c(n1)[C@@]1(c3ccccc3)C=C(C#N)C(=O)[C@@H](C)[C@@H]1CC2` [Example 12, (6aS,7S,10aR)-2-(ethylamino)-7-methyl-8-oxo-10a-phenyl-5,6,6a,7,8,10a-hexahydrobenzo[h]quinazoline-9-carbonitrile] yielded an IC50 of 24.1 nM.

In the case of `COc1nc(C)nc2c1CC[C@H]1[C@H](C)C(=O)C(C#N)=C[C@]21c1ccccc1` [Example 13, (6aS,7S,10aR)-4-methoxy-2,7-dimethyl-8-oxo-10a-phenyl-5,6,6a,7,8,10a-hexahydrobenzo[h]quinazoline-9-carbonitrile], the IC50 is reported as 4.8 nM.

For `COc1nc(Nc2ccccc2)nc2c1CC[C@H]1[C@H](C)C(=O)C(C#N)=C[C@]21c1ccccc1` [Example 14, (6aS,7S,10aR)-2-anilino-4-methoxy-7-methyl-8-oxo-10a-phenyl-5,6,6a,7,8,10a-hexahydrobenzo[h]quinazoline-9-carbonitrile], the IC50 was 11.4 nM.

Work on `COc1nc(Nc2ccc(Br)cc2)nc2c1CC[C@H]1[C@H](C)C(=O)C(C#N)=C[C@]21c1ccccc1` [Example 15, (6aS,7S,10aR)-2-[(4-bromophenyl)amino]-4-methoxy-7-methyl-8-oxo-10a-phenyl-5,6,6a,7,8,10a-hexahydrobenzo[h]quinazoline-9-carbonitrile] yielded an IC50 of 30 nM.

`C[C@@H]1C(=O)C(C#N)=C[C@]2(c3ccccc3)c3nc(Nc4ccccc4)nc(-c4cncnc4)c3CC[C@@H]12` [Example 16, (6aS,7S,10aR)-2-anilino-7-methyl-8-oxo-10a-phenyl-4-(pyrimidin-5-yl)-5,6,6a,7,8,10a-hexahydrobenzo[h]quinazoline-9-carbonitrile] was tested, and the IC50 was 7.8 nM.
